Experimental data taken from patent US10736883B2, “Triazole furan compounds as agonists of the APJ receptor” (AMGEN INC., priority 2016, dated 2020).
pEC50: −log10 of the molar value.

Target: APJ receptor (Homo sapiens (Human), UniProt P35414)
Assay: [35S]GTPγS binding assay on membranes from CHO cells stably expressing human APJ receptor
Assay type: biochemical
Settings: membranes of CHO cells stably expressing human APJ receptor, means of several independent experiments, read-out: Activity hAPJ SPA EC50 IP
In short: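 Membranes from CHO cells stably expressing human APJ were incubated with 0.2 nM [35S]GTPγS and ligands for 90 min at RT in 20 mM HEPES pH 7.5, 5 mM MgCl2, 200 mM NaCl, 3 μM GDP, 0.1% BSA with WGA PS beads. Nonspecific binding was set with 100 μM GTPγS. EC50 came from non-linear regression.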

Sequence of APJ receptor (P35414 whole entry): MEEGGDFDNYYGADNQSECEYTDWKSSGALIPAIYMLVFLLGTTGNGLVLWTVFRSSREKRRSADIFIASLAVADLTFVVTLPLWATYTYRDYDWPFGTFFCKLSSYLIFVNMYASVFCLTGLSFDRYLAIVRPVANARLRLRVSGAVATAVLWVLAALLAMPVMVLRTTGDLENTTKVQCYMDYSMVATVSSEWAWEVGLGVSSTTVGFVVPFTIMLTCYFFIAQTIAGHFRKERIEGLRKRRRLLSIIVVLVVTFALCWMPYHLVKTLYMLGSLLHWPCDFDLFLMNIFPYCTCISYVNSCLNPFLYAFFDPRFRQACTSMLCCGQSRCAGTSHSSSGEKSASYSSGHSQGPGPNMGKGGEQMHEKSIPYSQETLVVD

Row | Structure (SMILES) | pEC50
1 | COc1cccc(OC)c1-n1c(NS(=O)(=O)[C@@H](C)[C@@H](O)c2coc(C)n2)nnc1-c1ccc(C)o1 (single isomer, unassigned) [Example 55.0, (1S,2S)—N-(4-(2,6-dimethoxyphenyl)-5-(5-methyl-2-furanyl)-4H-1,2,4-triazol-3-yl)-1-hydroxy-1-(2-methyl-1,3-oxazol-4-yl)-2-propanesulfonamide or (1R,2R)—N-(4-(2,6-dimethoxyphenyl)-5-(5-methyl-2-furanyl)-4H-1,2,4-triazol-3-yl)-1-hydroxy-1-(2-methyl-1,3-oxazol-4-yl)-2-propanesulfonamide] | 7.55
2 | COc1ccnc(N2C[C@H](O)C[C@H](S(=O)(=O)Nc3nnc(-c4ccc(C)o4)n3-c3c(OC)cccc3OC)C2)n1 (mixture of isomers) [Example 324.0, (3S,5R)—N-(4-(2,6-Dimethoxyphenyl)-5-(5-methyl-2-furanyl)-4H-1,2,4-triazol-3-yl)-5-hydroxy-1-(4-methoxy-2-pyrimidinyl)-3-piperidinesulfonamide and (3R,5S)—N-(4-(2,6-dimethoxyphenyl)-5-(5-methyl-2-furanyl)-4H-1,2,4-triazol-3-yl)-5-hydroxy-1-(4-methoxy-2-pyrimidinyl)-3-piperidinesulfonamide] | 9.68
3 | CCOC(=O)[C@@H]1C[C@H](S(=O)(=O)Nc2nnc(-c3ccco3)n2-c2c(OC)cccc2OC)CN(c2ncc(F)cn2)C1 (single isomer, unassigned) [Example 156.0, Ethyl (3R,5S)-5-((4-(2,6-Dimethoxyphenyl)-5-(2-furanyl)-4H-1,2,4-triazol-3-yl)sulfamoyl)-1-(5-fluoro-2-pyrimidinyl)-3-piperidinecarboxylate or Ethyl (3S,5R)-5-((4-(2,6-dimethoxyphenyl-5-(2-furanyl)-4H-1,2,4-triazol-3-yl)sulfamoyl)-1-(5-fluoro-2-pyrimidinyl)-3-piperidinecarboxylate] | 9.44
4 | COc1cccc(OC)c1-n1c(NS(=O)(=O)[C@H]2C[C@@H](O)CN(c3nc(C)cc(C)n3)C2)nnc1-c1ccc(C)o1 (racemic) [Example 326.0, (3S,5R)—N-(4-(2,6-Dimethoxyphenyl)-5-(5-methylfuran-2-yl)-4H-1,2,4-triazol-3-yl)-1-(4,6-dimethylpyrimidin-2-yl)-5-hydroxypiperidine-3-sulfonamide and (3R,5S)—N-(4-(2,6-dimethoxyphenyl)-5-(5-methylfuran-2-yl)-4H-1,2,4-triazol-3-yl)-1-(4,6-dimethylpyrimidin-2-yl)-5-hydroxypiperidine-3-sulfonamide] | 9.62
5 | COc1cccc(OC)c1-n1c(NS(=O)(=O)[C@H](C)Cc2ncc(Cl)cc2C#N)nnc1-c1ccco1 (single isomer, unassigned) [Example 20.0, (2R)-1-(5-chloro-3-cyano-2-pyridinyl)-N-(4-(2,6-dimethoxyphenyl)-5-(2-furanyl)-4H-1,2,4-triazol-3-yl)-2-propanesulfonamide or (2S)-1-(5-chloro-3-cyano-2-pyridinyl)-N-(4-(2,6-dimethoxyphenyl)-5-(2-furanyl)-4H-1,2,4-triazol-3-yl)-2-propanesulfonamide] | 9.52
6 | COc1cccc(OC)c1-n1c(NS(=O)(=O)[C@H]2CCCN(S(=O)(=O)C(C)C)C2)nnc1-c1ccco1 (single isomer, unassigned) [Example 339.0, (S)—N-(4-(2,6-Dimethoxyphenyl)-5-(furan-2-yl)-4H-1,2,4-triazol-3-yl)-1-(isopropylsulfonyl)piperidine-3-sulfonamide or (R)—N-(4-(2,6-dimethoxyphenyl)-5-(furan-2-yl)-4H-1,2,4-triazol-3-yl)-1-(isopropylsulfonyl)piperidine-3-sulfonamide] | 7.21
7 | COc1cccc(OC)c1-n1c(NS(=O)(=O)CCc2ncc(Cl)cc2C2=CCOCC2)nnc1-c1ccco1 [Example 215.0, 2-(5-Chloro-3-(3,6-dihydro-2H-pyran-4-yl)-2-pyridinyl)-N-(4-(2,6-dimethoxyphenyl)-5-(2-furanyl)-4H-1,2,4-triazol-3-yl)ethanesulfonamide] | 9.66
8 | COc1cccc(OC)c1-n1c(NS(=O)(=O)[C@@H](C)[C@H](O)c2cc3ccccn3n2)nnc1-c1ccc(C)o1 (single isomer, unassigned) [Example 266.0, (1R,2S)—N-(4-(2,6-Dimethoxyphenyl)-5-(5-methyl-2-furanyl)-4H-1,2,4-triazol-3-yl)-1-hydroxy-1-pyrazolo[1,5-a]pyridin-2-yl-2-propanesulfonamide or (1S,2R)—N-(4-(2,6-dimethoxyphenyl)-5-(5-methyl-2-furanyl)-4H-1,2,4-triazol-3-yl)-1-hydroxy-1-pyrazolo[1,5-a]pyridin-2-yl-2-propanesulfonamide] | 9.68
9 | COc1ncnc(OC)c1-n1c(NS(=O)(=O)[C@@H](C)[C@H](C)c2ccc(Cl)cn2)nnc1-c1ccc(C)o1 [Example 400.0, (2S,3R)-3-(5-chloro-2-pyridinyl)-N-(4-(4,6-dimethoxy-5-pyrimidinyl)-5-(5-methyl-2-furanyl)-4H-1,2,4-triazol-3-yl)-2-butanesulfonamide] | 10.00
10 | Cc1ccc(-c2nnc(NS(=O)(=O)[C@@H](C)Cc3ncc(F)cn3)n2C2CCOCC2)o1 (racemic) [Example 317.0, (2S)-1-(5-Fluoro-2-pyrimidinyl)-N-(5-(5-methyl-2-furanyl)-4-(tetrahydro-2H-pyran-4-yl)-4H-1,2,4-triazol-3-yl)-2-propanesulfonamide and (2R)-1-(5-fluoro-2-pyrimidinyl)-N-(5-(5-methyl-2-furanyl)-4-(tetrahydro-2H-pyran-4-yl)-4H-1,2,4-triazol-3-yl)-2-propanesulfonamide] | 6.51
11 | COc1cccc(OC)c1-n1c(NS(=O)(=O)[C@@H](C)[C@H](O)c2ncc(C#N)cc2F)nnc1-c1ccc(C)o1 (single isomer, unassigned) [Example 68.0] | 9.43
12 | COc1cnc([C@H](O)[C@@H](C)S(=O)(=O)Nc2nnc(-c3ccc(C)o3)n2-c2c(OC)cccc2OC)cn1 (single isomer, unassigned) [Example 177.0, (1S,2R)—N-(4-(2,6-Dimethoxyphenyl)-5-(5-methyl-2-furanyl)-4H-1,2,4-triazol-3-yl)-1-hydroxy-1-(5-methoxy-2-pyrazinyl)-2-propanesulfonamide or (1R,2S)—N-(4-(2,6-dimethoxyphenyl)-5-(5-methyl-2-furanyl)-4H-1,2,4-triazol-3-yl)-1-hydroxy-1-(5-methoxy-2-pyrazinyl)-2-propanesulfonamide] | 8.55
13 | COc1cccc(OC)c1-n1c(NS(=O)(=O)CCc2ncc(Cl)cc2CCN2CC[C@H](O)C2)nnc1-c1ccco1 [Example 238.0, 2-(5-Chloro-3-(2-((3S)-3-hydroxy-1-pyrrolidinyl)ethyl)-2-pyridinyl)-N-(4-(2,6-dimethoxyphenyl)-5-(2-furanyl)-4H-1,2,4-triazol-3-yl)ethanesulfonamide] | 9.23
14 | CO[C@H](c1ncc(Cl)cn1)[C@H](C)S(=O)(=O)Nc1nnc(-c2ccc(C)o2)n1[C@@H]1CCCOC1 [Example 391.0, (1R,2S)-1-(5-chloropyrimidin-2-yl)-1-methoxy-N-(5-(5-methylfuran-2-yl)-4-((R)-tetrahydro-2H-pyran-3-yl)-4H-1,2,4-triazol-3-yl)propane-2-sulfonamide] | 8.08
15 | COc1ncnc(OC)c1-n1c(NS(=O)(=O)[C@@H](C)[C@H](OC)c2ncc(Cl)cn2)nnc1-c1ccc(C)o1 [Example 384.0, (1R,2S)-1-(5-chloro-2-pyrimidinyl)-N-(4-(4,6-dimethoxy-5-pyrimidinyl)-5-(5-methyl-2-furanyl)-4H-1,2,4-triazol-3-yl)-1-methoxy-2-propanesulfonamide] | 9.82
16 | COc1cccc(OC)c1-n1c(NS(=O)(=O)C2C[C@@H]2c2ccc(Cl)cc2)nnc1-c1ccco1 (single isomer, unassigned) [Example 191.0, (1R,2S)-2-(4-Chlorophenyl)-N-(4-(2,6-dimethoxyphenyl)-5-(2-furanyl)-4H-1,2,4-triazol-3-yl)cyclopropanesulfonamide or (1S,2R)-2-(4-chlorophenyl)-N-(4-(2,6-dimethoxyphenyl)-5-(2-furanyl)-4H-1,2,4-triazol-3-yl)cyclopropanesulfonamide] | 7.82
17 | COc1cccc(OC)c1-n1c(NS(=O)(=O)[C@H](C)[C@@H](O)c2ncc(F)cn2)nnc1-c1ccc(C)o1 [Example 211.0, (1S,2R)-N-(4-(2,6-dimethoxyphenyl)-5-(5-methylfuran-2-yl)-4H-1,2,4-triazol-3-yl)-1-(5-fluoropyrimidin-2-yl)-1-hydroxypropane-2-sulfonamide] | 8.39
18 | COc1cccc(OC)c1-n1c(NS(=O)(=O)[C@@H](C)[C@@H](O)c2cc3ccccn3n2)nnc1-c1ccc(C)o1 (single isomer, unassigned) [Example 271.0, (1S,2S)—N-(4-(2,6-Dimethoxyphenyl)-5-(5-methyl-2-furanyl)-4H-1,2,4-triazol-3-yl)-1-hydroxy-1-pyrazolo[1,5-a]pyridin-2-yl-2-propanesulfonamide or (1R,2R)—N-(4-(2,6-dimethoxyphenyl)-5-(5-methyl-2-furanyl)-4H-1,2,4-triazol-3-yl)-1-hydroxy-1-pyrazolo[1,5-a]pyridin-2-yl-2-propanesulfonamide] | 9.21
19 | COc1cccc(OC)c1-n1c(NS(=O)(=O)C[C@@](C)(F)c2ncc(C#N)cn2)nnc1-c1ccc(C)o1 (racemic) [Example 229.0, (2S)-2-(5-Cyano-2-pyrimidinyl)-N-(4-(2,6-dimethoxyphenyl)-5-(5-methyl-2-furanyl)-4H-1,2,4-triazol-3-yl)-2-fluoro-1-propanesulfonamide and (2R)-2-(5-cyano-2-pyrimidinyl)-N-(4-(2,6-dimethoxyphenyl)-5-(5-methyl-2-furanyl)-4H-1,2,4-triazol-3-yl)-2-fluoro-1-propanesulfonamide] | 9.41
